Reference: patent US6967095B2, “Human secretory type phospholipase A2” (Shionogi & Co., Ltd., priority 1998, dated 2005)

Assays:
[1] = biological target: T1, human PLA2 of this invention (IID type) (Homo sapiens, UniProt Q9UNK4); experiment: Inhibition of secretory PLA2 activity, release of 14C-oleic acid from 14C-POPC; assay type: biochemical; conditions: IID type from culture supernatant of CHO cells; 1 mM POPC, 3 mM deoxycholic acid, 2 mM CaCl2, pH 8.0, 40° C., 60 min; FIG. 4
T1 construct: made in house
T1 sequence (Q9UNK4 21-145): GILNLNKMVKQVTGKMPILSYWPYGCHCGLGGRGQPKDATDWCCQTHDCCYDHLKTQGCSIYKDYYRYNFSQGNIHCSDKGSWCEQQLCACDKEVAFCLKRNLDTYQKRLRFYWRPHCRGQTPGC
Experimental: (§1) Inhibitory activity against this novel type of human secretory type PLA2 was determined with Indoxam that is a 1-oxamoylindolidine derivative. It has already been reported that Indoxam inhibits the enzymatic activities of IIA type and IB type secretory type PLA2 (Yokota et al., Biochim. Biophys. Acta (1999) 1438, 213-222). The PLA2 activities were determined by the measurement of the quantity of released ^14C-oleic acid from ^14C-labeled 1-palmitoyl-2-oleoyl-phosphatidylcholine (POPC), according to the Draheim et al.'s method (J. Med. Chem., (1996) 39, 5159-5175). In the solution composed of 50 mM Tris-HCl (pH 8.0), 200 mM NaCl, 2 mM CaCl2, and 1 mg/ml bovine serum albumin, the substrates composed of 1 mM POPC (the mixture of about 100,000 cpm ^-C-POPC and unlabeled POPC) and 3 mM deoxycholic acid were incubated with each secretory PLA2 in the presence of various concentrations of Indoxam at 40° C. for 60 min. Then, the quantity of released ^-C-oleic acid was measured. Purified materials were used in the case with human IB type (2 ng), IIA type (10 ng) and X type (4 ng). […]
(§2) The quantity of released ^14C-oleic acid from ^14C-POPC by each human secretory type PLA2 in the absence of Indoxam was regarded as 100% and the quantity of released ^14C-oleic acid in the presence of each concentration of Indoxam was shown as %.

[2] = biological target: T2, human IIA type secretory PLA2 (Homo sapiens, UniProt P14555); experiment: as above; assay type: biochemical; conditions: purified human IIA type (10 ng); 1 mM POPC, 3 mM deoxycholic acid, 2 mM CaCl2, pH 8.0, 40° C., 60 min; FIG. 4
T2 sequence (P14555 21-144): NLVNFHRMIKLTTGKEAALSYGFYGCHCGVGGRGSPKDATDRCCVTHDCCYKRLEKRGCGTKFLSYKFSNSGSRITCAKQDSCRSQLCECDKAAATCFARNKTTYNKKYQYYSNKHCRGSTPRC
Experimental: as §1, §2

[3] = biological target: IB type secretory type PLA2 (Homo sapiens, UniProt P04054); conditions: already reported, Yokota et al., Biochim. Biophys. Acta (1999) 1438, 213-222; cited from earlier work
[4] = biological target: T3, IIA type secretory type PLA2 (Homo sapiens, UniProt P14555); conditions: already reported, Yokota et al., Biochim. Biophys. Acta (1999) 1438, 213-222; cited from earlier work
T3 sequence (P14555 21-144): T2 sequence (P14555 21-144)

IB type secretory type PLA2, sequence (P04054 23-148): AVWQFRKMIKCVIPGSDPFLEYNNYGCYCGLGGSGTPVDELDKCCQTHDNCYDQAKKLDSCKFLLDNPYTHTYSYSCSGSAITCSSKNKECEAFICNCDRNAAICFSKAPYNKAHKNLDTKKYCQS

SMILES: CCc1c(C(=O)C(N)=O)c2c(OCC(=O)O)cccn2c1Cc1ccccc1-c1ccccc1 [Indoxam]
- inhibition of enzymatic activity (released 14C-oleic acid as % of that without Indoxam) [1]: strongly inhibits
- inhibition of enzymatic activity (released 14C-oleic acid as % of that without Indoxam) [2]: strongly inhibits
- inhibition of enzymatic activity of IB type secretory type PLA2 [3]: inhibits
- inhibition of enzymatic activity of IIA type secretory type PLA2 [4]: inhibits
